± gives the expanded uncertainty stated by the source.
Assay: activity coefficient (dimensionless); of the first substance listed, at infinite dilution; xn = mol fraction of the nth substance listed
Settings: Liquid, Chromatography, x1 = 0

Structure (SMILES)	activity coefficient (298.15 K)	activity coefficient (308.15 K)	activity coefficient (318.15 K)	activity coefficient (328.15 K)	activity coefficient (338.15 K)	activity coefficient (348.15 K)	activity coefficient (358.15 K)	activity coefficient (368.15 K)
Cc1ccccc1C [1,2-dimethylbenzene] + CC(C)C[P+](C)(CC(C)C)CC(C)C.Cc1ccc(S(=O)(=O)[O-])cc1	2.31 ± 0.16	2.21 ± 0.15	2.18 ± 0.15	2.1 ± 0.14	2.06 ± 0.14	2.04 ± 0.14	2.03 ± 0.14	2.01 ± 0.14
Cc1cccc(C)c1 [1,3-dimethylbenzene] + CC(C)C[P+](C)(CC(C)C)CC(C)C.Cc1ccc(S(=O)(=O)[O-])cc1	2.68 ± 0.18	2.48 ± 0.17	2.44 ± 0.17	2.33 ± 0.16	2.36 ± 0.16	2.28 ± 0.16	2.27 ± 0.15	2.23 ± 0.15
Cc1ccc(C)cc1 [1,4-dimethylbenzene] + CC(C)C[P+](C)(CC(C)C)CC(C)C.Cc1ccc(S(=O)(=O)[O-])cc1	2.54 ± 0.17	2.44 ± 0.17	2.4 ± 0.16	2.23 ± 0.15	2.26 ± 0.15	2.23 ± 0.15	2.24 ± 0.15	2.21 ± 0.15
C=CCCCCC [1-heptene] + CC(C)C[P+](C)(CC(C)C)CC(C)C.Cc1ccc(S(=O)(=O)[O-])cc1	19.2 ± 1.3	14.6 ± 1	11.9 ± 0.8	9.62 ± 0.66	–	–	–	–
C#CCCCCC [1-heptyne] + CC(C)C[P+](C)(CC(C)C)CC(C)C.Cc1ccc(S(=O)(=O)[O-])cc1	2.57 ± 0.17	2.62 ± 0.18	2.54 ± 0.17	2.54 ± 0.17	–	–	–	–
C#CCCCC [1-hexyne] + CC(C)C[P+](C)(CC(C)C)CC(C)C.Cc1ccc(S(=O)(=O)[O-])cc1	2.69 ± 0.18	2.48 ± 0.17	2.32 ± 0.16	2.17 ± 0.15	–	–	–	–
C#CCCCCCC [1-octyne] + CC(C)C[P+](C)(CC(C)C)CC(C)C.Cc1ccc(S(=O)(=O)[O-])cc1	3.19 ± 0.22	3.08 ± 0.21	3.06 ± 0.21	3.04 ± 0.21	–	–	–	–
C=CCCC [1-pentene] + CC(C)C[P+](C)(CC(C)C)CC(C)C.Cc1ccc(S(=O)(=O)[O-])cc1	30.5 ± 2.1	20.7 ± 1.4	14.5 ± 1	9.91 ± 0.68	–	–	–	–
C#CCCC [1-pentyne] + CC(C)C[P+](C)(CC(C)C)CC(C)C.Cc1ccc(S(=O)(=O)[O-])cc1	3.01 ± 0.2	2.55 ± 0.17	2.24 ± 0.15	1.98 ± 0.13	–	–	–	–
COC(C)(C)C [2-methoxy-2-methylpropane] + CC(C)C[P+](C)(CC(C)C)CC(C)C.Cc1ccc(S(=O)(=O)[O-])cc1	17.1 ± 1.2	11 ± 0.8	8.26 ± 0.56	5.68 ± 0.39	5 ± 0.34	4.57 ± 0.31	4.16 ± 0.28	–
c1ccccc1 [benzene] + CC(C)C[P+](C)(CC(C)C)CC(C)C.Cc1ccc(S(=O)(=O)[O-])cc1	1.53 ± 0.1	1.42 ± 0.09	1.35 ± 0.09	1.28 ± 0.08	1.25 ± 0.08	1.21 ± 0.08	1.2 ± 0.08	1.18 ± 0.08
CCCCO [butan-1-ol] + CC(C)C[P+](C)(CC(C)C)CC(C)C.Cc1ccc(S(=O)(=O)[O-])cc1	–	–	0.322 ± 0.031	0.318 ± 0.031	0.319 ± 0.031	0.328 ± 0.032	0.33 ± 0.032	0.323 ± 0.032
C1CCCCCC1 [cycloheptane] + CC(C)C[P+](C)(CC(C)C)CC(C)C.Cc1ccc(S(=O)(=O)[O-])cc1	12.3 ± 0.8	9.79 ± 0.67	7.64 ± 0.52	6.55 ± 0.45	–	–	–	–
C1CCCCC1 [cyclohexane] + CC(C)C[P+](C)(CC(C)C)CC(C)C.Cc1ccc(S(=O)(=O)[O-])cc1	22.5 ± 1.5	14.5 ± 1	10.5 ± 0.7	7.67 ± 0.52	–	–	–	–
C1CCCCCCC1 [cyclooctane] + CC(C)C[P+](C)(CC(C)C)CC(C)C.Cc1ccc(S(=O)(=O)[O-])cc1	10.5 ± 0.7	8.54 ± 0.58	7.48 ± 0.51	6.67 ± 0.45	–	–	–	–
C1CCCC1 [cyclopentane] + CC(C)C[P+](C)(CC(C)C)CC(C)C.Cc1ccc(S(=O)(=O)[O-])cc1	20.6 ± 1.4	13.5 ± 0.9	9.69 ± 0.66	6.79 ± 0.46	–	–	–	–
CCCCCCCCCC [decane] + CC(C)C[P+](C)(CC(C)C)CC(C)C.Cc1ccc(S(=O)(=O)[O-])cc1	33.3 ± 2.3	29.2 ± 2	26 ± 1.8	23.6 ± 1.6	–	–	–	–
